Measurements as given in US8470856B2, “Anthranilamide compounds, process for their production and pesticides containing them” (Ishihara Sangyo Kaisha, Ltd., priority 2004, dated 2013).
Where “and” joins values, the source holds several entries; their conditions need not be identical. Equal entries are not always repeated.

Assays:
Assay type in all cases: in vivo
[1] = tested on: Haemaphysalis longicornis; assay: Controlling effects against Haemaphysalis longicornis, knockdown of larval ticks in treated petri dish; conditions: 1 ml acetone solution 10 μg/ml on petri dish, 25° C., operation repeated twice (two values)
Experimental: Test on Controlling Effects Against Haemaphysalis longicornis
On an inner surface of a petri dish having diameter of 9 cm, 1 ml of an acetone solution of a sample compound (concentration: 10 μg/ml) was dropwise applied by a micropipette. On the other hand, as a control section, 1 ml of acetone was dropwise applied in the same manner. The inner surface of the petri dish was dried, and then about 100 larval ticks were put, and the petri dish was covered with a polyethylene sheet and sealed with an elastic band. Thereafter, except for the observation time, the petri dish was left to stand at a constant temperature of 25° C. under a relative humidity of 100% and under a constantly dark condition. The observation was carried out every time after putting the larval ticks in the petri dish (after 5 minutes, 10 minutes, 15 minutes, 20 minutes, 30 minutes, 45 minutes, 1 hour, 2 hours, 4 hours, 6 hours and 24 hours). The number of knockdown ticks after the contact with the insecticidal compound was recorded. The foregoing operation was repeated twice.
The knockdown rate at each observation time was corrected by the following abbott correction formula. Then, a probit-time linear line was drawn, and the median knockdown time (KT50 value) was obtained. With respect to the KT50 values of the respective sample compounds, they were 9 minutes and 8 minutes with the above-mentioned compound No. 3, and 7.5 minutes and 6 minutes with the above-mentioned compound No. 9, while they were 80 minutes and 40 minutes with the following comparative compound A and 120 minutes and 80 minutes with the following comparative compound B. Corrected knockdown rate(%)=[(non-knockdown rate in control section−non-knockdown rate in treated section)/non-knockdown rate in control section]×100

[2] = tested on: Common Cutworm (Spodoptera litura); assay: Controlling effects against common cutworm, cabbage leaf dip; conditions: foliar, 120 h
Text: Test on Controlling Effects Against Common Cutworm (Spodoptera litura)
A leaf segment of cabbage was dipped for about 10 seconds in an insecticidal solution prepared to bring the concentration of the compound of the present invention to 50 ppm or 3.1 ppm and dried in air. A wet filter paper was laid in a petri dish having a diameter of 9 cm, and the dried leaf segment of cabbage was placed thereon. Ten second-third instar larvae common cutworm were released therein and after putting a cover, left in a constant temperature chamber at 25° C. with lightening. Dead larvae were counted 5 days after the release, and the mortality was calculated by the following equation. Here, moribund insects were counted as dead insects. […] Mortality(%)=(number of dead insects/number of released insects)×100

[3] = tested on: Cat Flea (Ctenocephalides felis); assay: Controlling effects against cat flea, dry film in glass tube; conditions: 0.5 ml of 5.3 ppm acetone solution as dry film, adult fleas, 48 hours after exposure
Experimental: Test on Controlling Effects Against Cat Flea (Ctenocephalides felis)
0.5 ml of an acetone solution of the compound of the present invention prepared to be 5.3 ppm was dropped in a glass tube having a flat bottom (inner diameter: 2.6 cm, bottom area: 5.3 cm^2, height 12 cm). The acetone was evaporated at room temperature to have a dry film containing the compound of the present invention formed on the bottom surface. Ten adults of cat flea (not-yet-blood-sucked adults within five days after adult emergence) were put therein and exposed to the compound of the present invention. The test was carried out continuously three times.
Dead cat flea were counted 48 hours after the exposure and the mortality was obtained in the same manner as in the above Test Example 1.

Compound | median knockdown time (KT50 value) [1] | other results
Cc1cc(Cl)cc(C(=O)NC(C)C2CC2)c1NC(=O)c1cc(C(F)(F)F)nn1-c1ncccc1Cl (stereo not drawn) [compound No. 3, N-[4-chloro-2-methyl-6-[[α-methyl-(cyclopropylmethyl)amino]carbonyl]-phenyl]-3-(trifluoromethyl)-1-(3-chloro-2-pyridyl)-1H-pyrazol-5-carboxamide] | 9 min and 8 min | 
Cc1cccc(C(=O)NCC2CC2)c1NC(=O)c1cc(C(F)(F)F)nn1-c1ncccc1Cl [compound No. 1, N-[6-[[(cyclopropylmethyl)amino]carbonyl]-2-methylphenyl]-1-(3-chloro-2-pyridyl)-3-(trifluoromethyl)-1H-pyrazol-5-carboxamide] |  | mortality at 3.1 ppm [2]: ≥ 90%
Cc1cc(Cl)cc(C(=O)NC(C)C)c1NC(=O)c1cc(C(F)(F)F)nn1-c1ncccc1Cl [comparative compound A, reference compound] | 80 min and 40 min | 
Cc1cc(Cl)cc(C(=O)NC(C)C)c1NC(=O)c1cc(Br)nn1-c1ncccc1Cl [comparative compound B, reference compound] | 120 min and 80 min | 
Cc1cc(Cl)cc(C(=O)NC(C)C2CC2)c1NC(=O)c1cc(Br)nn1-c1ncccc1Cl (stereo not drawn) [compound No. 9, N-[4-chloro-2-methyl-6-[[α-methyl-(cyclopropylmethyl)amino]carbonyl]-phenyl]-3-bromo-1-(3-chloro-2-pyridyl)-1H-pyrazol-5-carboxamide] | 7.5 min and 6 min | 
CC(NC(=O)c1cc(Cl)cc(Br)c1NC(=O)c1cc(Br)nn1-c1ncccc1Cl)C1CC1 (stereo not drawn) [compound No. 16, N-[2-bromo-4-chloro-6-[[α-methyl-(cyclopropylmethyl)amino]carbonyl]-phenyl]-3-bromo-1-(3-chloro-2-pyridyl)-1H-pyrazol-5-carboxamide] |  | mortality [3]: at least 90%
